Here are results for 27 compounds from US20080233102A1, “Drug Therapy for Celiac Sprue” (priority 2002, published 2008).

SMILES strings stand for the structures. Like-named read-outs stand apart in the source and are kept apart here.

Assay [1] concerns the target T1, Tissue transglutaminase (tTG) (Homo sapiens, UniProt P21980).
T1 sequence (P21980 1-687): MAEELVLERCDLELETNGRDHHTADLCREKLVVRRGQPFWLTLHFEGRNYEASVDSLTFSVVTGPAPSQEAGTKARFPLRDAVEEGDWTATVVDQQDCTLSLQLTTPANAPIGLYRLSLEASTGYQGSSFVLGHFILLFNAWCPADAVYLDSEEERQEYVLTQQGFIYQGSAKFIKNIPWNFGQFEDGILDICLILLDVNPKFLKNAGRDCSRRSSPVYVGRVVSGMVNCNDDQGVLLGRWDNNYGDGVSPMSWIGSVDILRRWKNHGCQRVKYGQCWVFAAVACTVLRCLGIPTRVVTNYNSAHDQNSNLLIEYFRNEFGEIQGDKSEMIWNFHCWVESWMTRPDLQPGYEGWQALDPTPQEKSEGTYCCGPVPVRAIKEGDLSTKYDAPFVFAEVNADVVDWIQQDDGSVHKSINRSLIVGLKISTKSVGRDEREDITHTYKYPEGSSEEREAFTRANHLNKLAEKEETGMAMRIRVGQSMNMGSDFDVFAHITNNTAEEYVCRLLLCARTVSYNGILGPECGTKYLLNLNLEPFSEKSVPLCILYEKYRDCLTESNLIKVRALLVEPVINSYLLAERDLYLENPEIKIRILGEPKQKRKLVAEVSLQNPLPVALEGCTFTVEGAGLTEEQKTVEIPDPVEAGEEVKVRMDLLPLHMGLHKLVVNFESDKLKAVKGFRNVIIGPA
Briefly: Inhibition of tTG (residual activity, glutamate dehydrogenase coupled assay). Type of assay: biochemical. The protocol: Inhibition of tTG. tTG (9 μM) was inactivated in 200 mM MOPS, pH=7.1, 5 mM CaCl2, 1 mM ETDA at 30° C. containing 0-600 μM Pro-Gln-Pro-Aci-Leu-Pro-Tyr. Every 20 minutes a 40 μl aliquot was removed and residual tTG activity was assayed in 0.5 ml reaction containing 200 mM MOPS, pH=7.1, 5 mM CaCl2, 1 mM ETDA, 10 mM α-ketoglutarate, 180 U/ml glutamate dehydrogenase (Biozyme laboratories) at 30° C. for 20 minutes by measuring the decrease of absorption at 340 nm. Residual activity was corrected by the corresponding uninhibited tTG reaction (0 μM inhibitor) and fitted to an exponential decay. Kinetic parameters were obtained by double-reciprocal plotting of the apparent second-order inactivation constant or, for isatin analogs, by fitting the data for reversible inhibitors to a standard Michaelis Menten equation with a competitive inhibition constant.

The target of assay [2] is T2, recombinant human tissue transglutaminase (Homo sapiens, UniProt P21980).
T2 construct: made in house
T2 sequence (P21980 1-687): T1 sequence (P21980 1-687)
Briefly: tTGase assay with recombinant human tissue transglutaminase. Format: biochemical. The conditions noted are these: dihydroisoxazole inhibitors of human tTGase; for Ki: competitive with Cbz-Gln-Gly substrate, read-out: Dissociation Constants (Kl); for Inhibition Rate Constants (kinh): irreversible inactivation.

Setting [3] is: isatin derivatives, reversible, competitive inhibition constant, read-out: Kl.
[4] abbreviates: dihydroisoxazoles, 200 mM MOPS, pH=7.1, 30° C., read-out: KI.

For `O=C1Nc2ccc(I)cc2C1=O` [R2 = R3 = H; R1 = I], the Ki in assay [1] (setting [3]) is 22 µM.

Regarding `Cc1ccc(C)c(NC(=O)NCC2CC(Br)=NO2)c1` (stereo not drawn) [1-(3-Bromo-4,5-dihydro-isoxazol-5-ylmethyl)-3-(2,5-dimethyl-phenyl)-urea], the Ki in assay [1] (setting [4]) was determined as 960 µM.

For `O=C(N[C@@H](Cc1ccc(F)cc1)C(=O)NCC1CC(Br)=NO1)OCc1ccccc1` (stereo partly drawn) [1c, {(S)-1-[(3-Bromo-4,5-dihydro-isoxazol-5-ylmethyl)-carbamoyl]-2-(4-fluoro-phenyl)-ethyl}-carbamic acid benzyl ester], in assay [2], the kinh/Kl was 980 min^−1M^−1, the Ki worked out at 430 µM and the “Inhibition Rate Constants (kinh)” value stood at 0.42 min⁻¹.

Take `O=C(N[C@@H](Cc1c[nH]c2ccccc12)C(=O)NCC1CC(Br)=NO1)OCc1ccccc1` (stereo partly drawn) [1e, {(S)-1-[(3-Bromo-4,5-dihydro-isoxazol-5-ylmethyl)-carbamoyl]-2-(1H-indol-3-yl)-ethyl}carbamic acid benzyl ester]: in assay [2], the kinh/Kl stood at 2500 min^−1M^−1, the Ki was 310 µM and the “Inhibition Rate Constants (kinh)” value turned out to be 0.78 min⁻¹.

As to `O=C(N[C@@H](Cc1ccc(O)cc1)C(=O)NCC1CC(Br)=NO1)OCC1=Cc2ccccc2S1(=O)=O` (stereo partly drawn) [3f, {(S)-1-[(3-Bromo-4,5-dihydro-isoxazol-5-ylmethyl)-carbamoyl]-2-(4-hydroxy-phenyl)-ethyl}-carbamic acid 1,1-dioxo-1H-1λ6-benzo[b]thiophen-2-ylmethyl ester], in assay [2], the kinh/Kl turned out to be 4400 min^−1M^−1, the Ki stood at 87 µM and the “Inhibition Rate Constants (kinh)” value was determined as 0.38 min⁻¹.

As to `O=C(N[C@@H](Cc1ccc(O)cc1)C(=O)NCC1CC(Br)=NO1)OCc1ccncc1` (stereo partly drawn) [3b, {(S)-1-[(3-Bromo-4,5-dihydro-isoxazol-5-ylmethyl)-carbamoyl]-2-(4-hydroxy-phenyl)-ethyl}-carbamic acid pyridin-4-ylmethyl ester], in assay [2], the kinh/Kl is given as 1500 min^−1M^−1, the Ki is 81 µM and the “Inhibition Rate Constants (kinh)” value worked out at 0.12 min⁻¹.

On to `CN(CC1CC(Br)=NO1)C(=O)[C@H](Cc1ccccc1)NC(=O)OCc1ccccc1` (stereo partly drawn) [2b, {(S)-1-[(3-Bromo-4,5-dihydro-isoxazol-5-ylmethyl)-methyl-carbamoyl]-2-phenyl-ethyl}-carbamic acid benzyl ester], for which, in assay [2], the kinh/Kl was 730 min^−1M^−1 and the “Inhibition Rate Constants (kinh)” value was 0.19 min⁻¹.

Consider `O=C(N[C@@H](Cc1cccc(F)c1)C(=O)NCC1CC(Br)=NO1)OCc1ccccc1` (stereo partly drawn) [1d, {(S)-1-[(3-Bromo-4,5-dihydro-isoxazol-5-ylmethyl)-carbamoyl]-2-(3-fluoro-phenyl)-ethyl}-carbamic acid benzyl ester], for which, in assay [2], the kinh/Kl was determined as 2200 min^−1M^−1, the Ki was 390 µM and the “Inhibition Rate Constants (kinh)” value stood at 0.84 min⁻¹.

Take `O=C(N[C@@H](Cc1ccc(O)cc1)C(=O)NCC1CC(Br)=NO1)OCCc1ccccc1` (stereo partly drawn) [3d, {(S)-1-[(3-Bromo-4,5-dihydro-isoxazol-5-ylmethyl)-carbamoyl]-2-(4-hydroxy-phenyl)-ethyl}-carbamic acid phenethyl ester]: in assay [2], the kinh/Kl is 1500 min^−1M^−1, the Ki came out at 61 µM and the “Inhibition Rate Constants (kinh)” value turned out to be 0.093 min⁻¹.

Take `O=C1Nc2c(cccc2-c2ccccc2)C1=O` [R1 = R2 = H; R3 = Ph]: the Ki in assay [1] (setting [3]) stood at 400 µM.

As to `O=C(N[C@@H](Cc1c[nH]c2ccc(O)cc12)C(=O)NCC1CC(Br)=NO1)OCc1ccccc1` (stereo partly drawn) [1f, {(S)-1-[(3-Bromo-4,5-dihydro-isoxazol-5-ylmethyl)-carbamoyl]-2-(5-hydroxy-1H-indol-3-yl)-ethyl}-carbamic acid benzyl ester], in assay [2], the kinh/Kl turned out to be 2800 min^−1M^−1, the Ki came out at 110 µM and the “Inhibition Rate Constants (kinh)” value is 0.31 min⁻¹.

Turning to `O=C1Nc2ccc(F)cc2C1=O` [R2 = R3 = H; R1 = F], in assay [1] (setting [3]), the Ki came to 18 µM.

For the compound `O=C(N[C@@H](Cc1ccc(O)cc1)C(=O)NCC1CC(Br)=NO1)OCc1ccccc1` (stereo partly drawn) [1b], in assay [2], the kinh/Kl is 2000 min^−1M^−1, the Ki was found to be 420 µM and the “Inhibition Rate Constants (kinh)” value is 0.86 min⁻¹.

Consider `O=C(N[C@@H](Cc1ccc(O)cc1)C(=O)NCC1CC(Br)=NO1)OCc1ccc2ccccc2c1` (stereo partly drawn) [3e, {(S)-1-[(3-Bromo-4,5-dihydro-isoxazol-5-ylmethyl)-carbamoyl]-2-(4-hydroxy-phenyl)-ethyl}-carbamic acid naphthalen-2-ylmethyl ester], for which, in assay [2], the kinh/Kl is 1600 min^−1M^−1, the Ki turned out to be 43 µM and the “Inhibition Rate Constants (kinh)” value was determined as 0.070 min⁻¹.

As to `C[C@H](NC(=O)OCc1ccccc1)C(=O)NCC1CC(Br)=NO1` (stereo partly drawn) [1i, {(S)-1-[(3-Bromo-4,5-dihydro-isoxazol-5-ylmethyl)-carbamoyl]-ethyl}-carbamic acid benzyl ester], in assay [2], the kinh/Kl is recorded as 450 min^−1M^−1 and the “Inhibition Rate Constants (kinh)” value amounted to 0.41 min⁻¹.

`O=C1Nc2ccc([N+](=O)[O-])cc2C1=O` [R2 = R3 = H, R1 = NO2]: the Ki in assay [1] (setting [3]) is 48 µM.

Consider `CC(=O)N[C@@H](Cc1ccccc1)C(=O)NCC1CC(Br)=NO1` (stereo partly drawn) [3a, (S)-2-Acetylamino-N-(3-bromo-4,5-dihydro-isoxazol-5-ylmethyl)-3-phenyl-propionamide], for which, in assay [2], the kinh/Kl came out at 220 min^−1M^−1 and the “Inhibition Rate Constants (kinh)” value turned out to be 0.60 min⁻¹.

In the case of `O=C(C[C@H](NC(=O)OCc1ccccc1)C(=O)NCC1CC(Br)=NO1)NCc1ccccc1` (stereo partly drawn) [1g, {(S)-2-Benzylcarbamoyl-1-[(3-bromo-4,5-dihydro-isoxazol-5-ylmethyl)-carbamoyl]-ethyl}-carbamic acid benzyl ester], in assay [2], the kinh/Kl stood at 2300 min^−1M^−1 and the “Inhibition Rate Constants (kinh)” value was found to be 0.54 min⁻¹.

As for `O=C(N[C@H](Cc1ccccc1)C(=O)NCC1CC(Br)=NO1)OCc1ccccc1` (stereo partly drawn) [1h, {(R)-1-[(3-Bromo-4,5-dihydro-isoxazol-5-ylmethyl)-carbamoyl]-2-phenyl-ethyl}-carbamic acid benzyl ester], the “Inhibition Rate Constants (kinh)” value in assay [2] worked out at 0.29 min⁻¹.

For the compound `O=C(NCC1CC(Br)=NO1)Nc1cc(C(F)(F)F)ccc1Cl` (stereo not drawn) [1-(3-Bromo-4,5-dihydro-isoxazol-5-ylmethyl)-3-(2-chloro-5-trifluoromethyl-phenyl)-urea], the Ki in assay [1] (setting [4]) stood at 910 µM.

`O=C(N[C@@H](Cc1ccc(O)cc1)C(=O)NCC1CC(Br)=NO1)OCc1cccnc1` (stereo partly drawn) [3c, {(S)-1-[(3-Bromo-4,5-dihydro-isoxazol-5-ylmethyl)-carbamoyl]-2-(4-hydroxy-phenyl)-ethyl}-carbamic acid pyridin-3-ylmethyl ester]: in assay [2], the kinh/Kl was 2700 min^−1M^−1, the Ki is 78 µM and the “Inhibition Rate Constants (kinh)” value came to 0.21 min⁻¹.

In the case of `O=C1Nc2ccccc2C1=O` [R1 = R2 = R3 = H], in assay [1] (setting [3]), the Ki was 860 µM.

For `O=C(NCC1CC(Br)=NO1)Nc1ccc(F)cc1` (stereo not drawn) [1-(3-Bromo-4,5-dihydro-isoxazol-5-ylmethyl)-3-(4-fluoro-phenyl)-urea], the Ki in assay [1] (setting [4]) turned out to be 1300 µM.

Turning to `O=C(N[C@@H](Cc1c[nH]c2ccc(O)cc12)C(=O)NCC1CC(Br)=NO1)OCC1=Cc2ccccc2S1(=O)=O` (stereo partly drawn) [compound 4, {(S)-1-[(3-Bromo-4,5-dihydro-isoxazol-5-ylmethyl)-carbamoyl]-2-(5-hydroxy-1H-indol-3-yl)-ethyl}-carbamic acid 1,1-dioxo-1H-1λ6-benzo[b]thiophen-2-ylmethyl ester], in assay [2], the kinh/Kl is reported as 6800 min^−1M^−1, the Ki was 79 µM and the “Inhibition Rate Constants (kinh)” value was 0.54 min⁻¹.

On to `O=C(NCC1CC(Br)=NO1)Nc1ccccc1` (stereo not drawn) [1-(3-Bromo-4,5-dihydro-isoxazol-5-ylmethyl)-3-phenyl-urea], for which the Ki in assay [1] (setting [4]) was 1100 µM.

As for `O=C1Nc2cc(-c3ccccc3)ccc2C1=O` [R1 = R3 = H; R2 = Ph], the Ki in assay [1] (setting [3]) amounted to 350 µM.

In the case of `O=C(N[C@@H](Cc1ccccc1)C(=O)OCC1CC(Br)=NO1)OCc1ccccc1` (stereo partly drawn) [2a, (S)-2-Benzyloxycarbonylamino-3-phenyl-propionic acid 3-bromo-4,5-dihydro-isoxazol-5-ylmethyl ester], in assay [2], the kinh/Kl amounted to 230 min^−1M^−1 and the “Inhibition Rate Constants (kinh)” value was 0.32 min⁻¹.
